Reference: ChEMBL document CHEMBL1133152, “Design and synthesis of mimics of S-adenosyl-L-homocysteine as potential inhibitors of erythromycin methyltransferases” (Bioorg Med Chem Lett, 2000)

Experiments:
[1] = The compound was tested for its ability to inhibit ErmC methylase at 100 uM
[2] = The compound was tested for its ability to inhibit ErmAM methylase at 100 uM
[3] = biological target: T1, rRNA adenine N-6-methyltransferase (Streptococcus pneumoniae, UniProt P21236); assay: Inhibition of ErmAM methylase
T1 sequence (P21236 whole entry): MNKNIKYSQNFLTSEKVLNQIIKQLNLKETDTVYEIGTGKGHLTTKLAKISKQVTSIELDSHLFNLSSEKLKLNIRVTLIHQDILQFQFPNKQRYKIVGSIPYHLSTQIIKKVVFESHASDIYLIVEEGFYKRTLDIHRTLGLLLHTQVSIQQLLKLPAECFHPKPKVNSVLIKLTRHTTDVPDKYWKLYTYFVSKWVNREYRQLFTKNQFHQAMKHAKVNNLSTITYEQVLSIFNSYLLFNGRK

[4] = The compound was tested for its ability to inhibit ErmC methylase
[5] = The compound was tested for its binding ability to inhibit ErmAM methylase
[6] = The compound was tested for its ability to inhibit ErmC methylase; Range 50-100

SMILES	inhibition [1] [%]	inhibition [2] [%]	Ki [3] [µM]	Ki [4] [µM]	Ki [5] [µM]	Ki [6] [µM]
Nc1nc(C[C@@H]2O[C@H](COC/C=C/c3ccccc3)[C@@H](O)[C@H]2O)nc(NC2Cc3ccccc3C2)n1			~90	~60		
Nc1nc(CC2O[C@H](CSCc3ccc(Cl)cc3)[C@@H](O)[C@H]2O)nc(NC2Cc3ccccc3C2)n1 (stereo not given in full)			~55	~80		
Nc1nc(C[C@@H]2O[C@H](COCc3ccc(Br)cc3)[C@@H](O)[C@H]2O)nc(NC2Cc3ccccc3C2)n1			~75	~40		
Nc1nc(NC2Cc3ccccc3C2)cc(-c2ccc(NCCCc3ccccc3O)cc2)n1					10	
Nc1nc(CC[C@@H]2O[C@H](COCc3ccc(Br)cc3)[C@@H](O)[C@H]2O)nc(NC2Cc3ccccc3C2)n1	37.5	55	~50			100

More lines, main results first:

inhibition [1] [%]	inhibition [2] [%]	Ki [3] [µM]	Ki [4] [µM]	Ki [5] [µM]	SMILES	Ki [6] [µM]
28	3.4	> 100	> 100		Nc1nc(CC2O[C@H](CSc3ccccc3)[C@@H](O)[C@H]2O)nc(NC2Cc3ccccc3C2)n1 (stereo not given in full)	
10	10	> 100	> 100		Nc1nc(CC2O[C@H](CSCc3ccccc3)[C@@H](O)[C@H]2O)nc(NC2Cc3ccccc3C2)n1 (stereo not given in full)	
				8	Nc1nc(NC2Cc3ccccc3C2)nc(N2CCCCC2)n1	
5.5	16.9	> 100			Nc1nc(CC2O[C@H](COCc3ccccc3)[C@@H](O)[C@H]2O)nc(NC2Cc3ccccc3C2)n1 (stereo not given in full)	
17.7	9.9	> 100	> 100		Nc1nc(NC2Cc3ccccc3C2)nc([C@H]2C[C@@H](O)[C@H](O)[C@H](OCc3ccccc3)C2)n1	
39.9	18	> 100			Nc1nc(CC2O[C@H](CSCCc3ccccc3)[C@@H](O)[C@H]2O)nc(NC2Cc3ccccc3C2)n1 (stereo not given in full)	100
0	15	> 100	> 100		Cc1ccc(COC[C@H]2O[C@@H](Cc3nc(N)nc(NC4Cc5ccccc5C4)n3)[C@H](O)[C@@H]2O)cc1	
